Drawing on PubChem BioAssay (NCI), this text covers TGI and GI50 for 16 compounds.

Test systems include MALME-3M melanoma; A498 renal; SNB-75 CNS; 786-0 renal; RXF 393 renal; SF-268 CNS; ACHN renal; NCI-H522 lung; HOP-92 NSCLC.
What all share (assay): growth of human tumour cells (NCI), 48 h

Where “and” joins values, the source holds several entries; their conditions need not be identical. Identical values can stand only once.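 Step 1: Grow cells in 96-well plates. Step 2: Expose to compound for 48 hours at 5 concentrations. Step 3: Interpolate endpoints linearly; if unreached, use highest concentration. GI50 marks 50% less growth. TGI marks complete inhibition of growth.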

For `Cc1ccccc1NC(=O)C(=O)C(C#N)c1ccc(Cl)cc1` (centres undefined), the TGI in the assay with MALME-3M melanoma, in the assay with A498 renal, with SNB-75 CNS, in the assay on 786-0 renal, in the assay with RXF 393 renal and in the assay on SF-268 CNS was greater than 100 µM each time. For the same compound, the TGI in the assay on ACHN renal, with NCI-H522 lung and with HOP-92 NSCLC was greater than 100 µM throughout.

`CC[C@]1(O)CC(OC2CC(N(C)C)C(O)C(C)O2)c2c(cc3c(c2O)C(=O)c2c(O)cccc2C3=O)[C@@H]1C(=O)OC` (some centres undefined): the TGI stood at 1.01 µM with MALME-3M melanoma; 1.13 µM with A498 renal; 1.42 µM with SNB-75 CNS; 5.58 µM in the assay on 786-0 renal; 1.76 µM in the assay on RXF 393 renal; 2.2 µM with SF-268 CNS. The TGI is 0.963 µM with ACHN renal, 1.65 µM with NCI-H522 lung and 1.51 µM in the assay with HOP-92 NSCLC.

Take `C[C@@H]1COCCN1c1cc(C2([S@](C)(=N)=O)CC2)nc(-c2ccnc3[nH]ccc23)n1`: the GI50 was 8.22 µM and 6.49 µM in the assay with MALME-3M melanoma; 0.43 µM and 1.27 µM in the assay on A498 renal; 2.29 µM and 2.16 µM in the assay on SNB-75 CNS; 1.39 µM and 2.03 µM in the assay with 786-0 renal; 1.33 µM and 3.34 µM in the assay on RXF 393 renal; 7.1 µM and > 10 µM in the assay with SF-268 CNS. Besides, the GI50 was 0.818 µM and 1.65 µM in the assay on ACHN renal; 8.61 µM and 4.82 µM in the assay on NCI-H522 lung; 1.34 µM and 1.14 µM in the assay on HOP-92 NSCLC. In addition, the TGI in the assay on MALME-3M melanoma is 45.1 µM and > 10 µM; with A498 renal it was 3.71 µM and 8.78 µM; with SNB-75 CNS it was 20.3 µM and > 10 µM; in the assay on 786-0 renal, 16.1 µM and > 10 µM; with RXF 393 renal it was 6.37 µM and > 10 µM; in the assay with SF-268 CNS it was greater than 100 µM. In addition, the TGI with ACHN renal is greater than 100 µM; in the assay on NCI-H522 lung, greater than 84 µM; in the assay with HOP-92 NSCLC, 14 µM and 8.77 µM.

Consider `Cc1ccc(NC(=O)c2cc3cc(N=Nc4ccc(Br)cc4)ccc3oc2=O)cc1`, for which the TGI in the assay with MALME-3M melanoma, in the assay with A498 renal, in the assay with SNB-75 CNS, in the assay on 786-0 renal, in the assay on RXF 393 renal and with SF-268 CNS was greater than 100 µM throughout. Besides, the TGI with ACHN renal, in the assay with NCI-H522 lung and in the assay on HOP-92 NSCLC was greater than 100 µM each time.

On to `Cc1c(N2CCCC2)cc2c(c1NC(=O)c1ccccc1Cl)C(C)(C)CC2(C)C`, for which the TGI in the assay on MALME-3M melanoma is 36.1 µM; in the assay with A498 renal, 29.1 µM; in the assay on SNB-75 CNS, 28.9 µM; in the assay with 786-0 renal, 27.8 µM; in the assay on RXF 393 renal, 27.5 µM; with SF-268 CNS, 30.6 µM. The TGI turned out to be 28.4 µM with ACHN renal, 28.4 µM with NCI-H522 lung and 24 µM in the assay with HOP-92 NSCLC.

Turning to `CC12CCC3C(CCC4Cc5[nH]c6ccccc6c5CC43C)C1CCC2O` (centres undefined), the GI50 in the assay on MALME-3M melanoma is 2.92 µM; with A498 renal it was 0.696 µM; in the assay on SNB-75 CNS it was 0.574 µM; in the assay on 786-0 renal, 0.835 µM; in the assay on RXF 393 renal, 0.738 µM; in the assay with SF-268 CNS it was 2.55 µM. In addition, the GI50 is 0.967 µM in the assay with ACHN renal, 0.295 µM in the assay on NCI-H522 lung and greater than 100 µM with HOP-92 NSCLC. Further, the TGI is greater than 100 µM in the assay with MALME-3M melanoma; 6.44 µM in the assay with A498 renal; greater than 100 µM in the assay with SNB-75 CNS; 3.31 µM in the assay on RXF 393 renal; greater than 100 µM in the assay with SF-268 CNS; greater than 100 µM with ACHN renal. For the same compound, the TGI in the assay on NCI-H522 lung is 5.73 µM; with HOP-92 NSCLC, greater than 100 µM.

Regarding `CC(C)[C@]12O[C@H]1[C@@H]1O[C@]13[C@]1(O[C@H]1C[C@H]1C4=C(CC[C@@]13C)C(=O)OC4)[C@@H]2O`, the GI50 in the assay with MALME-3M melanoma is 0.018 µM; with A498 renal, 0.0274 µM; in the assay on SNB-75 CNS, 0.0168 µM; in the assay with 786-0 renal it was 0.0303 µM; in the assay on RXF 393 renal, 0.0172 µM and < 0.0107 µM; with ACHN renal it was 0.0102 µM. Moreover, the GI50 with NCI-H522 lung was 0.0114 µM; with HOP-92 NSCLC it was 0.0201 µM. For the same compound, the TGI in the assay on MALME-3M melanoma is 0.0328 µM and 0.0467 µM; with A498 renal, 0.0454 µM and 0.0828 µM; with SNB-75 CNS it was 0.035 µM and 0.0398 µM; in the assay with 786-0 renal, greater than 100 µM; in the assay with RXF 393 renal it was 0.0353 µM and < 0.0169 µM; in the assay with SF-268 CNS, 0.241 µM and 0.218 µM. For the same compound, the TGI in the assay with ACHN renal was greater than 100 µM; with NCI-H522 lung it was 0.157 µM and 0.0366 µM; in the assay with HOP-92 NSCLC, 0.107 µM and 0.0808 µM.

For `Clc1ccc(CSC(Cn2ccnc2)c2ccc(Cl)cc2Cl)cc1` (centres undefined), the GI50 with MALME-3M melanoma is 1.64 µM; in the assay on A498 renal it was 1.13 µM; in the assay with SNB-75 CNS, 2.13 µM; in the assay on 786-0 renal, 1.61 µM; in the assay with RXF 393 renal, 1.43 µM; in the assay with SF-268 CNS, 1.66 µM. For the same compound, the GI50 with ACHN renal was 2.28 µM; in the assay with NCI-H522 lung, 1.13 µM; with HOP-92 NSCLC, 0.914 µM. Further, the TGI in the assay with MALME-3M melanoma came to 3.15 µM; with A498 renal, 2.33 µM; in the assay with SNB-75 CNS, 8.04 µM; with 786-0 renal, 3.13 µM; in the assay with RXF 393 renal it was 2.76 µM; in the assay with SF-268 CNS, 3.83 µM. Besides, the TGI with ACHN renal was found to be 6.5 µM; in the assay on NCI-H522 lung it was 2.48 µM; with HOP-92 NSCLC, 2.44 µM.

For `C=CC[n+]1c(/C=C/C=C2\N(C)c3ccccc3C2(C)C)sc2ccc(OC)cc21`, the GI50 with MALME-3M melanoma was 0.188 µM; in the assay on A498 renal, 0.278 µM; in the assay on SNB-75 CNS, 0.283 µM; in the assay with 786-0 renal, 0.363 µM; with RXF 393 renal it was 0.431 µM; in the assay with SF-268 CNS, 0.321 µM. The GI50 in the assay on ACHN renal was 1.65 µM; with NCI-H522 lung, 0.133 µM; in the assay with HOP-92 NSCLC, 0.201 µM. In addition, the TGI with MALME-3M melanoma stood at 0.733 µM; in the assay with A498 renal it was 4.37 µM; in the assay with SNB-75 CNS, 14.1 µM; in the assay with 786-0 renal, 18.8 µM; with RXF 393 renal it was 13.7 µM; in the assay with SF-268 CNS, 19.6 µM. The results for the TGI in the assay with ACHN renal, in the assay on NCI-H522 lung and in the assay on HOP-92 NSCLC were 10.9 µM, 2.6 µM and 1.61 µM, respectively.

In the case of `CCOC(=O)c1ccc2[nH]c(-c3ccc(S(=O)(=O)F)cc3)cc(=O)c2c1`, the TGI in the assay with MALME-3M melanoma was 90.6 µM; with A498 renal it was 68 µM; with SNB-75 CNS it was greater than 100 µM; in the assay on 786-0 renal, greater than 100 µM; with RXF 393 renal, greater than 100 µM; in the assay with SF-268 CNS, greater than 100 µM. In addition, the TGI was 84.2 µM in the assay on ACHN renal, 39.4 µM in the assay with NCI-H522 lung and greater than 100 µM with HOP-92 NSCLC.

As to `O=C(O)CCNc1ccccc1C(=O)O`, the TGI in the assay with MALME-3M melanoma, in the assay on A498 renal, with SNB-75 CNS, in the assay with 786-0 renal, with RXF 393 renal and in the assay on SF-268 CNS was greater than 100 µM throughout. In addition, the TGI in the assay on ACHN renal, in the assay with NCI-H522 lung and with HOP-92 NSCLC was greater than 100 µM each time.

As for `COc1cc(C(=O)/C=C/c2c(C)n([O-])c3ccc(C)cc3[n+]2=O)cc(OC)c1OC`, the GI50 was 2.24 µM in the assay on MALME-3M melanoma; 14.5 µM in the assay with A498 renal; 14.5 µM in the assay on SNB-75 CNS; 7.62 µM in the assay on 786-0 renal; 1.89 µM in the assay with RXF 393 renal; 12.3 µM in the assay on SF-268 CNS. In addition, the GI50 is 2.23 µM with ACHN renal, 0.741 µM in the assay on NCI-H522 lung and 5.56 µM in the assay on HOP-92 NSCLC. For the same compound, the TGI worked out at 5.2 µM in the assay on MALME-3M melanoma; 38.6 µM in the assay on A498 renal; 31.7 µM in the assay on SNB-75 CNS; 21.7 µM with 786-0 renal; 3.91 µM in the assay on RXF 393 renal; 29.5 µM with SF-268 CNS. In addition, the TGI in the assay on ACHN renal is 5.6 µM; in the assay on NCI-H522 lung it was 2.29 µM; with HOP-92 NSCLC it was greater than 27.1 µM.

Take `CS/C(=N\C(=S)N(C)C)N(c1ccccc1)c1nc(=[N+](C)C)ss1`: the TGI with MALME-3M melanoma is 7.44 µM; with A498 renal, 7.04 µM; with SNB-75 CNS, 19.1 µM; in the assay with 786-0 renal, 39.3 µM; with RXF 393 renal, 37.4 µM; in the assay with SF-268 CNS it was 26.4 µM. Further, the TGI in the assay with ACHN renal is greater than 100 µM; with NCI-H522 lung it was 5.36 µM; with HOP-92 NSCLC, 51.2 µM.

On to `CN(Cc1cnc2nc(N)nc(N)c2n1)c1ccc(C(=O)NC(CCC(=O)O)C(=O)O)cc1C(F)(F)F` (centres undefined), for which the TGI in the assay with MALME-3M melanoma, in the assay on A498 renal, with SNB-75 CNS, in the assay on 786-0 renal, in the assay on RXF 393 renal and in the assay on SF-268 CNS was greater than 100 µM throughout. Further, the TGI with ACHN renal, in the assay on NCI-H522 lung and in the assay on HOP-92 NSCLC was greater than 100 µM throughout.

As to `COC(=O)C1=C(c2ccc(OC)c(OC)c2)OC(c2ccc(OC)c(OC)c2)C1` (centres undefined), the TGI in the assay with MALME-3M melanoma is 69.3 µM; in the assay on A498 renal it was 46.9 µM; in the assay on SNB-75 CNS, greater than 100 µM; with 786-0 renal, greater than 100 µM; in the assay on RXF 393 renal, 69.9 µM; in the assay on SF-268 CNS it was greater than 100 µM. The TGI with ACHN renal and in the assay with HOP-92 NSCLC was greater than 100 µM in each case.

As for `CN1N=CSC12C(=O)N(c1ccc(Cl)cc1)C(=O)N2c1ccc(Cl)cc1` (centres undefined), the TGI in the assay on MALME-3M melanoma is greater than 100 µM; in the assay with A498 renal it was 9.67 µM; in the assay with SNB-75 CNS, 16.5 µM; in the assay on 786-0 renal, greater than 100 µM; in the assay with RXF 393 renal, 36.1 µM; with SF-268 CNS it was greater than 100 µM. Further, the TGI in the assay with NCI-H522 lung amounted to 5.73 µM; in the assay with HOP-92 NSCLC, 8.92 µM.
